The assay concerns Mycobacterium tuberculosis. It counts as cell-based. Particulars: 5x and 10x MIC90 of T145, 5 weeks of incubation.

Molecules are shown by their SMILES.

As for `CC(=O)NC[C@H]1CN(c2ccc3c(c2)Oc2ccccc2O3)C(=O)O1` [T145, N-(((S)-3-(dibenzo[b,e][1,4]dioxin-7-yl)-2-oxooxazolidin-5-yl)methyl)acetamide], the “frequency of spontaneous mutants that confer resistance” value is 4.0 × 10^-8.
